The source of these data is PubChem BioAssay (NCI).

Test systems include IGROV1 ovarian; SR leukemia; HCT-15 colon; TK-10 renal; DU-145 prostate; A549 NSCLC; HCT-116 colon; T-47D breast; NCI-H522 lung; SK-OV-3 ovarian; CCRF-CEM leukemia; OVCAR-5 ovarian; A498 renal; SF-268 CNS; RPMI-8226 leukemia.
Holding throughout (assay): NCI tumour cell line growth inhibition, 48 h

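Assay format: 96-well plates, 48-hour exposure. The concentration for full growth arrest is given as TGI.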

On to `O=C1c2cccc3cccc(c23)C(=O)N1CCCNCCCCNCCCN1C(=O)c2cccc3cccc(c23)C1=O`, for which the TGI worked out at 1.83 µM in the assay on IGROV1 ovarian; 0.219 µM with SR leukemia; 13.8 µM in the assay with HCT-15 colon; 7.62 µM with TK-10 renal; 1.14 µM with DU-145 prostate; 0.833 µM with A549 NSCLC. Also, the TGI in the assay on HCT-116 colon was determined as 0.668 µM; with T-47D breast it was 4.32 µM; in the assay with NCI-H522 lung, 0.0803 µM; with SK-OV-3 ovarian it was 6.65 µM; in the assay with CCRF-CEM leukemia, 0.205 µM; with OVCAR-5 ovarian it was 2.44 µM. Also, the TGI in the assay with A498 renal turned out to be 2.45 µM; in the assay with SF-268 CNS, 0.605 µM; in the assay with RPMI-8226 leukemia it was 0.179 µM.
`C[n+]1noc(/N=N\[O-])c1-c1cc(-c2c(/N=N\[O-])on[n+]2C)cc(-c2c(/N=N/[O-])on[n+]2C)c1`: the TGI in the assay on IGROV1 ovarian, in the assay with SR leukemia, in the assay with HCT-15 colon, in the assay on TK-10 renal, in the assay with DU-145 prostate and in the assay on A549 NSCLC was more than 100 µM each time. The TGI in the assay on HCT-116 colon, with T-47D breast, in the assay with NCI-H522 lung, with SK-OV-3 ovarian, in the assay with CCRF-CEM leukemia and in the assay with OVCAR-5 ovarian was more than 100 µM in each case. The TGI in the assay with A498 renal, in the assay on SF-268 CNS and in the assay with RPMI-8226 leukemia was more than 100 µM in each case.
Regarding `Nc1ccc(-c2ncc3cc(-c4cccc(-c5cc6cnc(-c7ccc(N)cc7)nc6c6ccccc56)c4)c4ccccc4c3n2)cc1`, the TGI in the assay on IGROV1 ovarian, with SR leukemia, in the assay with HCT-15 colon, in the assay on TK-10 renal, in the assay with DU-145 prostate and in the assay with A549 NSCLC was more than 100 µM each time. Besides, the TGI in the assay on HCT-116 colon, in the assay on T-47D breast, in the assay with NCI-H522 lung, with SK-OV-3 ovarian, with CCRF-CEM leukemia and with OVCAR-5 ovarian was more than 100 µM throughout. The TGI in the assay with A498 renal, in the assay with SF-268 CNS and in the assay on RPMI-8226 leukemia was more than 100 µM in each case.
In the case of `OC(CC(CC(O)(C(F)(F)Cl)C(F)(F)Cl)=NNc1ccccc1)(C(F)(F)Cl)C(F)(F)Cl`, the TGI with IGROV1 ovarian is more than 10 µM; with SR leukemia, more than 10 µM; in the assay on HCT-15 colon it was 9.16 µM; in the assay with TK-10 renal it was 9.04 µM; in the assay with DU-145 prostate, 9.08 µM; in the assay with A549 NSCLC, more than 10 µM. Moreover, the TGI is 3.89 µM with HCT-116 colon; 9.42 µM in the assay on T-47D breast; more than 10 µM with NCI-H522 lung; more than 10 µM in the assay on SK-OV-3 ovarian; more than 10 µM in the assay with CCRF-CEM leukemia; more than 10 µM in the assay on OVCAR-5 ovarian. In addition, the figures for the TGI in the assay with A498 renal, with SF-268 CNS and with RPMI-8226 leukemia were 6.72 µM, 7.44 µM and more than 10 µM, respectively.
As to `COc1cccc(/C(CC(O)(C(F)(F)F)C(F)(F)F)=N\N(C)C)c1`, the TGI in the assay with IGROV1 ovarian, in the assay with SR leukemia, in the assay with HCT-15 colon, in the assay on TK-10 renal, in the assay with DU-145 prostate and in the assay on A549 NSCLC was more than 100 µM each time. For the same compound, the TGI in the assay with HCT-116 colon, in the assay on T-47D breast, in the assay on NCI-H522 lung, in the assay with SK-OV-3 ovarian, in the assay with CCRF-CEM leukemia and in the assay on OVCAR-5 ovarian was more than 100 µM each time. In addition, the TGI with A498 renal, in the assay on SF-268 CNS and with RPMI-8226 leukemia was more than 100 µM throughout.
In the case of `CC(=O)NC1=C(C)C(=O)c2c(nc3n2CCC3OC(=O)c2ccccc2)C1=N` (stereo unspecified), the TGI was 3.58 µM in the assay on IGROV1 ovarian; 7.73 µM in the assay on SR leukemia; 7.47 µM in the assay on HCT-15 colon; 9.17 µM with TK-10 renal; 3.44 µM in the assay on DU-145 prostate; 11 µM with A549 NSCLC. Also, the TGI in the assay with HCT-116 colon came to 21.2 µM; in the assay on T-47D breast, 10.9 µM; with NCI-H522 lung, 7.47 µM; in the assay on SK-OV-3 ovarian, 6.59 µM; in the assay on CCRF-CEM leukemia it was 9.71 µM; in the assay with OVCAR-5 ovarian, 7.36 µM. Moreover, the TGI with A498 renal came to 3.66 µM; in the assay with SF-268 CNS, 6.28 µM; with RPMI-8226 leukemia it was 4.34 µM.
`N#Cc1nc(CSCc2ccccc2)oc1N`: the TGI in the assay with IGROV1 ovarian, in the assay on SR leukemia, with HCT-15 colon, in the assay on TK-10 renal, in the assay with DU-145 prostate and with A549 NSCLC was more than 100 µM in each case. For the same compound, the TGI in the assay on HCT-116 colon, in the assay on T-47D breast, in the assay on NCI-H522 lung, in the assay with SK-OV-3 ovarian, in the assay with CCRF-CEM leukemia and in the assay on OVCAR-5 ovarian was more than 100 µM each time. For the same compound, the TGI with A498 renal and with SF-268 CNS was more than 100 µM in each case.
Turning to `NC(=O)C(c1ccccc1)N1OC2C(=O)N(Cc3ccccc3)C(=O)C2C1c1cccc(Oc2ccc(Cl)cc2)c1` (stereo unspecified), the TGI in the assay with IGROV1 ovarian is more than 100 µM; in the assay on SR leukemia, 54.1 µM; with HCT-15 colon, more than 100 µM; in the assay with TK-10 renal it was 95.6 µM; in the assay on DU-145 prostate, more than 100 µM; with A549 NSCLC, more than 100 µM. In addition, the TGI with HCT-116 colon was 44.5 µM; with T-47D breast it was more than 100 µM; with NCI-H522 lung it was more than 100 µM; with SK-OV-3 ovarian, more than 100 µM; in the assay with CCRF-CEM leukemia, more than 100 µM; in the assay with OVCAR-5 ovarian it was more than 100 µM. The TGI in the assay with A498 renal and with SF-268 CNS was more than 100 µM in each case.
With `CC1=C(C(=O)N[C@@H](Cc2ccccc2)C(=O)O)N2C(=O)[C@@H](NC(=O)[C@@H](N)CC(C)C)[C@H]2SC1`, the TGI with IGROV1 ovarian, in the assay on SR leukemia, with HCT-15 colon, with TK-10 renal, in the assay with DU-145 prostate and in the assay on A549 NSCLC was more than 100 µM in each case. Besides, the TGI in the assay on T-47D breast, in the assay on NCI-H522 lung, in the assay with CCRF-CEM leukemia, with OVCAR-5 ovarian, with A498 renal and in the assay on SF-268 CNS was more than 100 µM in each case. For the same compound, the TGI in the assay with RPMI-8226 leukemia was more than 100 µM.
